Reference: ChEMBL document CHEMBL4052645, “Discovery of potent and efficacious pyrrolopyridazines as dual JAK1/3 inhibitors” (Bioorg Med Chem Lett, 2017)

Tests used:
[1] = molecular target: Serine/threonine-protein kinase RIO3 (Homo sapiens) (UniProt O14730); experiment: Inhibition of full length human RIOK3 (M1 to E519 residues) expressed in bacterial expression system assessed as residual activity at 50 nM by KINOMEscan assay relative to control
[2] = molecular target: BMP-2-inducible protein kinase (Homo sapiens) (UniProt Q9NSY1); experiment: Inhibition of human BIKE (S34 to N329 residues) expressed in bacterial expression system assessed as residual activity at 50 nM by KINOMEscan assay relative to control
Sequence of BMP-2-inducible protein kinase (Homo sapiens) (Q9NSY1 whole entry, looked up, the tested form may be a part): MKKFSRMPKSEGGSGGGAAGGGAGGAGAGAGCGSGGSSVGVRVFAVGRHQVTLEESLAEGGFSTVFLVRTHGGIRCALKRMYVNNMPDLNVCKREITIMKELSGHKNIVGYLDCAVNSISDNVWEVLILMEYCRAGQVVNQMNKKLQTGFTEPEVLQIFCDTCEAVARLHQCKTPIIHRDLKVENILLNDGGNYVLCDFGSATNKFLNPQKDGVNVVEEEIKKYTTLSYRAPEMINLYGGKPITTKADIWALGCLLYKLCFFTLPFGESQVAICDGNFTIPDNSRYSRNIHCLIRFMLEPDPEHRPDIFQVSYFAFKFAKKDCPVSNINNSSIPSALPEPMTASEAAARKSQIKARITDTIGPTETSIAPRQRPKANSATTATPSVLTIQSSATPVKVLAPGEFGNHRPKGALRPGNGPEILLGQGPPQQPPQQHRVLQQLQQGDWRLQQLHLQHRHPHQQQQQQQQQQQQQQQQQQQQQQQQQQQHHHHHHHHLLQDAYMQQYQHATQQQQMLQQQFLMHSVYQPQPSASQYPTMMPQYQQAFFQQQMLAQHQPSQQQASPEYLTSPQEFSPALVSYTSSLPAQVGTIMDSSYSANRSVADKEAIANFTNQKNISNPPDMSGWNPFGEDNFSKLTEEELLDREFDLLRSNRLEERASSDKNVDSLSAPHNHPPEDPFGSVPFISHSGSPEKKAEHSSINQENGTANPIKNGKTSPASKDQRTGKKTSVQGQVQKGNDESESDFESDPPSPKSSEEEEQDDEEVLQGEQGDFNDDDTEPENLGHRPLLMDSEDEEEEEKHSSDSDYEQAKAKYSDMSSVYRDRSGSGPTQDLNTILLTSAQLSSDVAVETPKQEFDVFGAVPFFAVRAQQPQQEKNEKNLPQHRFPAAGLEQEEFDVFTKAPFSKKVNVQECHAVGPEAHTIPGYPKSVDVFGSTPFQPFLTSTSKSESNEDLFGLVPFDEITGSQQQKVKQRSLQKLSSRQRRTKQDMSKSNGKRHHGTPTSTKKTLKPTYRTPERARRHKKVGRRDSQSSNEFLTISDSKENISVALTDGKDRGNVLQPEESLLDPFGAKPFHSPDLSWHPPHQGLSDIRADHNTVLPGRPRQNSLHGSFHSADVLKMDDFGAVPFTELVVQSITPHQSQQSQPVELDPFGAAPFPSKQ

[3] = molecular target: Serine/threonine-protein kinase 4 (Homo sapiens) (UniProt Q13043); experiment: Inhibition of wild-type human full length MST1 (M1 to F487 residues) expressed in bacterial expression system assessed as residual activity at 50 nM by Kinomescan method relative to control
Sequence of Serine/threonine-protein kinase 4 (Homo sapiens) (Q13043 whole entry, the tested form may be a part): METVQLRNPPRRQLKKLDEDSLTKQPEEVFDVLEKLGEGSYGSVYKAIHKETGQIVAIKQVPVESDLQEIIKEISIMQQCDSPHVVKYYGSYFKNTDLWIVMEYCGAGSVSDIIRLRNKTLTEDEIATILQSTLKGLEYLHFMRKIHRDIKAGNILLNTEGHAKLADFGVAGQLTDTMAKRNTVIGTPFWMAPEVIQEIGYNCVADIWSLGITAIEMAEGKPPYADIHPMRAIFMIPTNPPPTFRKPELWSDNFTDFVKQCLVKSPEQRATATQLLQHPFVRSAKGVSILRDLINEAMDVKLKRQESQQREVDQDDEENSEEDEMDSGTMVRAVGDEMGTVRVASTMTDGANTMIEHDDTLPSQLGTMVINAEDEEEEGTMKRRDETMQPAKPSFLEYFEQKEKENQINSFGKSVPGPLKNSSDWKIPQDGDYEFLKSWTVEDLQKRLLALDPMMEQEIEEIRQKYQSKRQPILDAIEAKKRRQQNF

[4] = molecular target: Serine/threonine-protein kinase MRCK beta (Homo sapiens) (UniProt Q9Y5S2); experiment: Inhibition of human MRCKB (L56 to S417 residues) expressed in bacterial expression system assessed as residual activity at 50 nM by KINOMEscan assay relative to control
[5] = molecular target: Death-associated protein kinase 2 (Homo sapiens) (UniProt Q9UIK4); experiment: Inhibition of wild-type human full length DAPK2 (M1 to S370 residues) expressed in bacterial expression system assessed as residual activity at 50 nM by Kinomescan method relative to control
[6] = molecular target: Inhibitor of nuclear factor kappa-B kinase subunit beta (Homo sapiens) (UniProt O14920); experiment: Inhibition of wild-type human full length IKK-beta (M1 to S756 residues) expressed in mammalian expression system assessed as residual activity at 50 nM by Kinomescan method relative to control
[7] = molecular target: Serine/threonine-protein kinase 35 (Homo sapiens) (UniProt Q8TDR2); experiment: Inhibition of wild-type human partial length CLIK1 (G182 to A534 residues) expressed in bacterial expression system assessed as residual activity at 50 nM by Kinomescan method relative to control
Sequence of Serine/threonine-protein kinase 35 (Homo sapiens) (Q8TDR2 whole entry, the tested form may be a part): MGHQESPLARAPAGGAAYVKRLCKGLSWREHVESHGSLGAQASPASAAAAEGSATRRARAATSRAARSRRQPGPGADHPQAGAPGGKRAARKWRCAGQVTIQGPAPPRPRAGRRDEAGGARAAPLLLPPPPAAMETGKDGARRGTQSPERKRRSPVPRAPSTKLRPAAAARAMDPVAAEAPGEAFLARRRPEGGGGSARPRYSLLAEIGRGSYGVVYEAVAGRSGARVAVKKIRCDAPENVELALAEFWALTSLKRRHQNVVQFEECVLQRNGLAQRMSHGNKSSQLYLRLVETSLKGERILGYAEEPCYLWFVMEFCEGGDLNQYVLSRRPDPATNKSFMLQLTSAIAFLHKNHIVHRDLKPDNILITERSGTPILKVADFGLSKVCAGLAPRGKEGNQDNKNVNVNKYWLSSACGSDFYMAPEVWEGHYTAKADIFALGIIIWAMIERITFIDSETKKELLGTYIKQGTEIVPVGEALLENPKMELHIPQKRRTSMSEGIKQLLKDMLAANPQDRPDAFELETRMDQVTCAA

[8] = molecular target: Ephrin type-A receptor 1 (Homo sapiens) (UniProt P21709); experiment: Inhibition of wild-type human partial length EPHA1 (V588 to I913 residues) expressed in bacterial expression system assessed as residual activity at 50 nM by Kinomescan method relative to control
[9] = molecular target: SRSF protein kinase 1 (Homo sapiens) (UniProt Q96SB4); experiment: Inhibition of wild-type human full length SRPK1 (M1 to S655 residues) expressed in bacterial expression system assessed as residual activity at 50 nM by Kinomescan method relative to control
Sequence of SRSF protein kinase 1 (Homo sapiens) (Q96SB4 whole entry, the tested form may be a part): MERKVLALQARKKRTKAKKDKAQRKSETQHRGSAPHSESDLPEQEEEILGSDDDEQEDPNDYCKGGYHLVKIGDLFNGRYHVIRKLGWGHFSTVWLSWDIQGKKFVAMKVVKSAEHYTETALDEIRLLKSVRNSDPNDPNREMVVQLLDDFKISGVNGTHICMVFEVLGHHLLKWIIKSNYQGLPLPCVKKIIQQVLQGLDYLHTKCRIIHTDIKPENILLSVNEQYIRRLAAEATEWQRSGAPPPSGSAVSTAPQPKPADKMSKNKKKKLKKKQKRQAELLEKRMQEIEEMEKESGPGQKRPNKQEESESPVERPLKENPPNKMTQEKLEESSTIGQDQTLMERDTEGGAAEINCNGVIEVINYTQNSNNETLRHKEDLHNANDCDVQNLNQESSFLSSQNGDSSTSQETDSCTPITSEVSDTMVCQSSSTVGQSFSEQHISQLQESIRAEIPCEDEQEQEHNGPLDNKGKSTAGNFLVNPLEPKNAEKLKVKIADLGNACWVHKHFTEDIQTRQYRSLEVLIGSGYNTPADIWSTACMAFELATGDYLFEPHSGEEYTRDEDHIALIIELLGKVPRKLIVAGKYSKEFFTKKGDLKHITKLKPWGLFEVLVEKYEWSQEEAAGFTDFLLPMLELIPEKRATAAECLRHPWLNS

[10] = molecular target: Mitogen-activated protein kinase 6 (Homo sapiens) (UniProt Q16659); experiment: Inhibition of wild-type human partial length ERK3 (M1 to P413 residues) expressed in bacterial expression system assessed as residual activity at 50 nM by Kinomescan method relative to control
[11] = molecular target: Tyrosine-protein kinase ITK/TSK (Homo sapiens) (UniProt Q08881); experiment: Inhibition of wild-type human partial length ITK (R335 to L620 residues) expressed in bacterial expression system assessed as residual activity at 50 nM by Kinomescan method relative to control
[12] = tested on: Phosphatidylinositol 4,5-bisphosphate 3-kinase catalytic subunit alpha isoform (Homo sapiens), P42336 [E545A]; experiment: Inhibition of human partial length PIK3CA E545A mutant (R108 to N1068 residues) expressed in mammalian expression system assessed as residual activity at 50 nM by Kinomescan method relative to control
[13] = molecular target: Tyrosine-protein kinase ABL2 (Homo sapiens) (UniProt P42684); experiment: Inhibition of wild-type human ARG (A248 to G542 residues) expressed in bacterial expression system assessed as residual activity at 50 nM by Kinomescan method relative to control
[14] = molecular target: Calcium/calmodulin-dependent protein kinase type II subunit gamma (Homo sapiens) (UniProt Q13555); experiment: Inhibition of wild-type human partial length CAMK2G (R9 to A303 residues) expressed in bacterial expression system assessed as residual activity at 50 nM by Kinomescan method relative to control
[15] = molecular target: Serine/threonine-protein kinase B-raf (Homo sapiens) (UniProt P15056); experiment: Inhibition of wild-type human partial length BRAF (S429 to E741 residues) expressed in mammalian expression system assessed as residual activity at 50 nM by Kinomescan method relative to control
[16] = molecular target: Casein kinase I isoform epsilon (Homo sapiens) (UniProt P49674); experiment: Inhibition of wild-type human full length CK1E (M1 to K416 residues) expressed in bacterial expression system assessed as residual activity at 50 nM by Kinomescan method relative to control
[17] = molecular target: Mitogen-activated protein kinase 3 (Homo sapiens) (UniProt P27361); experiment: Inhibition of wild-type human full length ERK1 (M1 to P379 residues) expressed in bacterial expression system assessed as residual activity at 50 nM by Kinomescan method relative to control
[18] = molecular target: Mitogen-activated protein kinase 7 (Homo sapiens) (UniProt Q13164); experiment: Inhibition of wild-type human partial length ERK5 (M1 to A409 residues) expressed in bacterial expression system assessed as residual activity at 50 nM by Kinomescan method relative to control
[19] = molecular target: RAC-gamma serine/threonine-protein kinase (Homo sapiens) (UniProt Q9Y243); experiment: Inhibition of wild-type human partial length AKT3 expressed in bacterial expression system assessed as residual activity at 50 nM by Kinomescan method relative to control
[20] = molecular target: Dual specificity protein kinase CLK4 (Homo sapiens) (UniProt Q9HAZ1); experiment: Inhibition of wild-type human partial length CLK4 (R135 to K481 residues) expressed in bacterial expression system assessed as residual activity at 50 nM by Kinomescan method relative to control
[21] = molecular target: Epithelial discoidin domain-containing receptor 1 (Homo sapiens) (UniProt Q08345); experiment: Inhibition of wild-type human partial length DDR1 (R565 to V876 residues) expressed in bacterial expression system assessed as residual activity at 50 nM by Kinomescan method relative to control
[22] = molecular target: Dual specificity tyrosine-phosphorylation-regulated kinase 2 (Homo sapiens) (UniProt Q92630); experiment: Inhibition of wild-type human full length DYRK2 (M1 to S528 residues) expressed in mammalian expression system assessed as residual activity at 50 nM by Kinomescan method relative to control
[23] = molecular target: Ephrin type-A receptor 7 (Homo sapiens) (UniProt Q15375); experiment: Inhibition of wild-type human partial length EPHA7 (Y608 to S912 residues) expressed in bacterial expression system assessed as residual activity at 50 nM by Kinomescan method relative to control
[24] = molecular target: Vascular endothelial growth factor receptor 2 (Homo sapiens) (UniProt P35968); experiment: Inhibition of wild-type human partial length KDR (R787 to P1253 residues) expressed in mammalian expression system assessed as residual activity at 50 nM by Kinomescan method relative to control
Sequence of Vascular endothelial growth factor receptor 2 (Homo sapiens) (P35968 whole entry, the tested form may be a part): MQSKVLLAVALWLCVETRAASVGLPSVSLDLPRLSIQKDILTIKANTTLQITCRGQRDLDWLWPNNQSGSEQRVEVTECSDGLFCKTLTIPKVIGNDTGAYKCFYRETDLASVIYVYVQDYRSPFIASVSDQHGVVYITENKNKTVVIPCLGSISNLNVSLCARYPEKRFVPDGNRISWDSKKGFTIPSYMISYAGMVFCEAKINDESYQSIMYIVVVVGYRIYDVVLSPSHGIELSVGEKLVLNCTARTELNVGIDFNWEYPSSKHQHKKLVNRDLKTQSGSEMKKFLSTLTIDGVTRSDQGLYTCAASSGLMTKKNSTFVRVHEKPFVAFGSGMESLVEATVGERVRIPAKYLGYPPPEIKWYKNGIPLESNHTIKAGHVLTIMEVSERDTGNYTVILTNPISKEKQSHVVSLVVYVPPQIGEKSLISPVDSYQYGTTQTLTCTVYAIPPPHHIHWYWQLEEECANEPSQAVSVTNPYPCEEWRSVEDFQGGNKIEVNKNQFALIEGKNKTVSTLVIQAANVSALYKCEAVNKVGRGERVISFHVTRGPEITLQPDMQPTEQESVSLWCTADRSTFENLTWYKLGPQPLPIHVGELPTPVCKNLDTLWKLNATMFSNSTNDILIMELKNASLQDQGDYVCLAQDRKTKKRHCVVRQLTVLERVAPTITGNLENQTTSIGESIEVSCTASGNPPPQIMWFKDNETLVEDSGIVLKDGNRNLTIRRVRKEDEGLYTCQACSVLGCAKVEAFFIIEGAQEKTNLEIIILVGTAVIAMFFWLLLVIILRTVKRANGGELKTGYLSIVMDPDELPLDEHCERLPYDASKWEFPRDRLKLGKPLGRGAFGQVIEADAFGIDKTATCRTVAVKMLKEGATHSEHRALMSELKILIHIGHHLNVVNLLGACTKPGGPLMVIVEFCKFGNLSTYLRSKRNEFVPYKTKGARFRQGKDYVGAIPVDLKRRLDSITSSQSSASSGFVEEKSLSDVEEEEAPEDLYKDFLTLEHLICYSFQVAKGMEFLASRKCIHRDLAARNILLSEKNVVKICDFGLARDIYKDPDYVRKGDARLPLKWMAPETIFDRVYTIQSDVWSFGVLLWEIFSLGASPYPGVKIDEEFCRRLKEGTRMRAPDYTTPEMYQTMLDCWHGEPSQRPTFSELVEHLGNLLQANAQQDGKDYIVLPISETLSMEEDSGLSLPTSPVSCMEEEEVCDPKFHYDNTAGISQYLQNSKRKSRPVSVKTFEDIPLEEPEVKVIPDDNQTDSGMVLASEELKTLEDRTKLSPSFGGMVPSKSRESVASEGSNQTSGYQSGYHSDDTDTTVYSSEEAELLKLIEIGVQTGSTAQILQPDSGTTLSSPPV

[25] = molecular target: Phosphatidylinositol 3-kinase C2 domain-containing subunit gamma (Homo sapiens) (UniProt O75747); experiment: Inhibition of wild-type human partial length PI3KC2G (M1 to I1446 residues) expressed in mammalian expression system assessed as residual activity at 50 nM by Kinomescan method relative to control

Sequence of Serine/threonine-protein kinase RIO3 (Homo sapiens) (O14730 whole entry, the tested form may be a part): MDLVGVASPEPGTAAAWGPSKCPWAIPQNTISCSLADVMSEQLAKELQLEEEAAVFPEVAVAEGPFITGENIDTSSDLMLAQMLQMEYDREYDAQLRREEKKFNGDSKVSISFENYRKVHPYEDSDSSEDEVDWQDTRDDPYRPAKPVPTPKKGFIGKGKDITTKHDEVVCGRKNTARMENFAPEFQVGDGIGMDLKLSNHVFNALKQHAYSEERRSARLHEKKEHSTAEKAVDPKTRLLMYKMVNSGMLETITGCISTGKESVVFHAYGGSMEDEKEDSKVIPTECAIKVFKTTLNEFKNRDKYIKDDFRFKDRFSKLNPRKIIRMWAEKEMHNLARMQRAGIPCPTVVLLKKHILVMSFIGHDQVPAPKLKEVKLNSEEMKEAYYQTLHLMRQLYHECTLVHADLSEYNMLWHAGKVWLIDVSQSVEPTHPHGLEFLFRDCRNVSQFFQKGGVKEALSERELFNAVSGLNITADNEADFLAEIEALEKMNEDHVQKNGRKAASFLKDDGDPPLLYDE

SMILES | Activity [1] | Activity [2] | Activity [3] | Activity [4] | Activity [5] | Activity [6] | Activity [7] | Activity [8] | Activity [9] | Activity [10] | Activity [11] | Activity [12] | Activity [13] | Activity [14] | Activity [15] | Activity [16] | Activity [17] | Activity [18] | Activity [19] | Activity [20] | further results
CC1(C)[C@H](Nc2c(C(N)=O)cnn3cc(-c4ccccc4)cc23)CC[C@]1(C)N | 3.7% | 7.5% | 19% | 29% | 71% | 73% | 74% | 80% | 80% | 82% | 89% | 90% | 91% | 91% | 92% | 92% | 93% | 96% | 100% | 100% | Activity [21]: 100%; Activity [22]: 100%; Activity [23]: 100%; Activity [24]: 100%; Activity [25]: 100%
COc1ccc(-c2cc3c(N[C@@H]4CC[C@](C)(N)C4(C)C)c(C(N)=O)cnn3c2)cn1 | 66% | 42% | 35% | 82% | 92% | 100% | 87% | 93% | 62% | 100% | 90% | 100% | 91% | 90% | 100% | 87% | 100% | 100% | 100% | 100% | Activity [21]: 83%; Activity [22]: 100%; Activity [23]: 100%; Activity [24]: 88%; Activity [25]: 100%
